Assay results from ChEMBL document CHEMBL1144621, “Pharmacophore modeling and in silico screening for new KDR kinase inhibitors” (Bioorg Med Chem Lett, 2007).

Biological target: Vascular endothelial growth factor receptor 2 (Homo sapiens, UniProt P35968)
Sequence (P35968 whole entry): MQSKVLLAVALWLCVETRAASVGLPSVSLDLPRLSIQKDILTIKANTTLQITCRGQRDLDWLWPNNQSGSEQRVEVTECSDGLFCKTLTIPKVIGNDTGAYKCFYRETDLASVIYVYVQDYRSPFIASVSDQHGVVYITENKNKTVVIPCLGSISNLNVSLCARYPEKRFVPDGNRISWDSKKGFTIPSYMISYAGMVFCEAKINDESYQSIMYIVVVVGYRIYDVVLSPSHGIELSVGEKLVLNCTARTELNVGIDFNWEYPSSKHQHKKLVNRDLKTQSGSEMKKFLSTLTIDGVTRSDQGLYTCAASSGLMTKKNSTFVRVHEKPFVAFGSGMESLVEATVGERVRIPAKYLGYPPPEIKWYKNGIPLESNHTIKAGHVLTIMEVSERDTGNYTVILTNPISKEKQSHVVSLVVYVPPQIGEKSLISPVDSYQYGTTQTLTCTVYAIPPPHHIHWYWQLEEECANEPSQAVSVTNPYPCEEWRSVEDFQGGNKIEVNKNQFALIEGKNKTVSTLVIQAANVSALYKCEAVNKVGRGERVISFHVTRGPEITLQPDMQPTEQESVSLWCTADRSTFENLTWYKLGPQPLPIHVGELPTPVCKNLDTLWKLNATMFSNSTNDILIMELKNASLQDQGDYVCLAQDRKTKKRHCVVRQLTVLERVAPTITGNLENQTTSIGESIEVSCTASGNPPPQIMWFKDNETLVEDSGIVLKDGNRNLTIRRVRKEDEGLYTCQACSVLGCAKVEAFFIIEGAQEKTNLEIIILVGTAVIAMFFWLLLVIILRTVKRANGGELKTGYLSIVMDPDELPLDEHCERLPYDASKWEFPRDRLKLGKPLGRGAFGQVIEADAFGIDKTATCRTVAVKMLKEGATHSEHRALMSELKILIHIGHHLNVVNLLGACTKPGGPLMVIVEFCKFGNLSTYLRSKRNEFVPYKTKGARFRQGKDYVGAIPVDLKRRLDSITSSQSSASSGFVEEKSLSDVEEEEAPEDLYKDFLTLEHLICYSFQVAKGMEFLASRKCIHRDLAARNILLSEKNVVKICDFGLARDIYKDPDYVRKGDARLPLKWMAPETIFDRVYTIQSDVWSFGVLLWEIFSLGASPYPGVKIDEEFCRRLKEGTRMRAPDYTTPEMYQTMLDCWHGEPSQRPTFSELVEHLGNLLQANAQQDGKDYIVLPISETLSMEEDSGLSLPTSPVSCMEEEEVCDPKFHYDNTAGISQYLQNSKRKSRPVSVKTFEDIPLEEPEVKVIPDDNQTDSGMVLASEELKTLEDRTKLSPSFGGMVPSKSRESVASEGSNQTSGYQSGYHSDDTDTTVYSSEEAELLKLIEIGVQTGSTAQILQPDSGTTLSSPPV

Row | IC50 [µM] | Structure (SMILES)
1 | 15.4 | O=C1Nc2ccccc2/C1=C\c1sccc1Br
2 | 20 | Cn1cccc1/C=C1/C(=O)Nc2ccccc21
3 | 31 | Cc1cccc2c1/C(=C\c1ccc[nH]1)C(=O)N2
